Laboratory results reported in ChEMBL document CHEMBL3885861, “Open TG-GATES”.

Species: Rattus norvegicus
Assay: Open TG-GATES - Regimen: Daily Repeat
Assay type: toxicity, organism-based, Sprague-Dawley
Parameters: regimen Daily Repeat, gender Male, age 6 weeks
Details: in vivo, po, route gavage; for APTT / Bas / Eos / Fbg / Hb / Ht / Lym / MCH / MCHC / MCV / Mono / Neu / RBC / Ret / WBC / Plat: tissue Blood; for KIDNEY_L / KIDNEY_R / KIDNEY_TOTAL: tissue Kidney; for ALP / ALT / AST / BUN / CRE / Ca / Cl / DBIL / GLC / IP / K / LDH / Na / PL / RALB / TBIL / TC / TG / TP / gamma-GTP: tissue Plasma
[1] = 150 mg/kg, 72 h, dose level Middle, time 3 day
[2] = 150 mg/kg, […], dose level Middle, time 7 day
[3] = 150 mg/kg, […], dose level Middle, time 14 day
[4] = 150 mg/kg, […], dose level Middle, time 28 day
[5] = 450 mg/kg, 72 h, dose level High, time 3 day

Question: How did the APTT [1] turn out when CC(=O)Oc1ccccc1C(=O)O [ASPIRIN] was run?
Answer: 19 s

Question: What about the Bas [1] of the same molecule?
Answer: 0%

Question: What about the Eos [1] of the same molecule?
Answer: 1%

Question: What about the Fbg [1] of the same molecule?
Answer: 227.8 mg/dL

Question: And the Hb [1]?
Answer: 13.4 g/dL

Question: And the Ht [1]?
Answer: 39.3%

Question: What about the Lym [1] of the same molecule?
Answer: 80.8%

Question: And the MCH [1]?
Answer: 21.4 pg

Question: And the MCHC [1]?
Answer: 34.1%

Question: What about the MCV [1] of the same molecule?
Answer: 62.7 fL

Question: And the Mono [1]?
Answer: 2.8%

Question: What about the Neu [1] of the same molecule?
Answer: 14.4%

Question: What about the RBC [1] of the same molecule?
Answer: 627.2 x10_4/ul

Question: What about the Ret [1] of the same molecule?
Answer: 5.9%

Question: And the WBC [1]?
Answer: 108.2 x10_2/uL

Question: What about the KIDNEY_L [1] of the same molecule?
Answer: 1.1 g

Question: What about the KIDNEY_R [1] of the same molecule?
Answer: 1.1 g

Question: And the KIDNEY_TOTAL [1]?
Answer: 2.1 g

Question: And the ALP [1]?
Answer: 924.6 IU/L

Question: What about the ALT [1] of the same molecule?
Answer: 33.4 IU/L

Question: What about the AST [1] of the same molecule?
Answer: 68.4 IU/L

Question: And the BUN [1]?
Answer: 12.2 mg/dL

Question: What about the CRE [1] of the same molecule?
Answer: 0.4 mg/dL

Question: And the Ca [1]?
Answer: 10.6 mg/dL

Question: And the Cl [1]?
Answer: 102.4 meq/L

Question: What about the DBIL [1] of the same molecule?
Answer: 0.078 mg/dL

Question: What about the GLC [1] of the same molecule?
Answer: 196.6 mg/dL

Question: And the IP [1]?
Answer: 7 mg/dL

Question: And the K [1]?
Answer: 3.7 meq/L

Question: What about the LDH [1] of the same molecule?
Answer: 210.2 IU/L

Question: And the Na [1]?
Answer: 141 meq/L

Question: What about the PL [1] of the same molecule?
Answer: 155.8 mg/dL

Question: And the RALB [1]?
Answer: 3.4 g/dL

Question: What about the TBIL [1] of the same molecule?
Answer: 0.1 mg/dL

Question: And the TC [1]?
Answer: 73.8 mg/dL

Question: What about the TG [1] of the same molecule?
Answer: 117.6 mg/dL

Question: What about the TP [1] of the same molecule?
Answer: 5.6 g/dL

Question: What about the gamma-GTP [1] of the same molecule?
Answer: 1 IU/L

Question: What about the TERMINAL_BW [2] of the same molecule?
Answer: 268.1 g

Question: And the TERMINAL_BW [3]?
Answer: 320.9 g

Question: And the TERMINAL_BW [4]?
Answer: 404.7 g

Question: What about the APTT [2] of the same molecule?
Answer: 19.3 s

Question: And the Bas [2]?
Answer: 0%

Question: What about the Eos [2] of the same molecule?
Answer: 1%

Question: And the Fbg [2]?
Answer: 216 mg/dL

Question: And the Hb [2]?
Answer: 14 g/dL

Question: And the Ht [2]?
Answer: 41.1%

Question: What about the Lym [2] of the same molecule?
Answer: 82.4%

Question: And the MCH [2]?
Answer: 20.8 pg

Question: And the MCHC [2]?
Answer: 34%

Question: What about the MCV [2] of the same molecule?
Answer: 61.3 fL

Question: What about the Mono [2] of the same molecule?
Answer: 2.4%

Question: What about the Neu [2] of the same molecule?
Answer: 13.2%

Question: And the Plat [2]?
Answer: 119 x10_4/uL

Question: What about the RBC [2] of the same molecule?
Answer: 671 x10_4/ul

Question: What about the Ret [2] of the same molecule?
Answer: 4.7%

Question: And the WBC [2]?
Answer: 119.6 x10_2/uL

Question: What about the APTT [3] of the same molecule?
Answer: 19.5 s

Question: What about the Bas [3] of the same molecule?
Answer: 0%

Question: What about the Eos [3] of the same molecule?
Answer: 1.8%

Question: What about the Fbg [3] of the same molecule?
Answer: 204.8 mg/dL

Question: What about the Hb [3] of the same molecule?
Answer: 14.9 g/dL

Question: And the Ht [3]?
Answer: 42.1%

Question: What about the Lym [3] of the same molecule?
Answer: 77.6%

Question: And the MCH [3]?
Answer: 21.1 pg

Question: And the MCHC [3]?
Answer: 35.3%

Question: What about the MCV [3] of the same molecule?
Answer: 59.7 fL

Question: What about the Mono [3] of the same molecule?
Answer: 2.8%

Question: And the Neu [3]?
Answer: 17.2%

Question: What about the Plat [3] of the same molecule?
Answer: 125.3 x10_4/uL

Question: And the RBC [3]?
Answer: 704.8 x10_4/ul

Question: What about the Ret [3] of the same molecule?
Answer: 3.5%

Question: And the WBC [3]?
Answer: 156.5 x10_2/uL

Question: And the APTT [4]?
Answer: 21.3 s

Question: And the Bas [4]?
Answer: 0%

Question: And the Eos [4]?
Answer: 1.4%

Question: And the Fbg [4]?
Answer: 205.4 mg/dL

Question: And the Hb [4]?
Answer: 15.4 g/dL

Question: What about the Ht [4] of the same molecule?
Answer: 44.6%

Question: What about the Lym [4] of the same molecule?
Answer: 80.2%

Question: What about the MCH [4] of the same molecule?
Answer: 19.6 pg

Question: What about the MCHC [4] of the same molecule?
Answer: 34.6%

Question: And the MCV [4]?
Answer: 56.7 fL

Question: What about the Mono [4] of the same molecule?
Answer: 2.4%

Question: And the Neu [4]?
Answer: 14.6%

Question: What about the Plat [4] of the same molecule?
Answer: 108.6 x10_4/uL

Question: What about the RBC [4] of the same molecule?
Answer: 789.2 x10_4/ul

Question: And the Ret [4]?
Answer: 2.2%

Question: What about the WBC [4] of the same molecule?
Answer: 108.6 x10_2/uL

Question: And the KIDNEY_L [2]?
Answer: 1.2 g

Question: And the KIDNEY_R [2]?
Answer: 1.2 g

Question: And the KIDNEY_TOTAL [2]?
Answer: 2.3 g

Question: And the KIDNEY_L [3]?
Answer: 1.3 g

Question: What about the KIDNEY_R [3] of the same molecule?
Answer: 1.3 g

Question: And the KIDNEY_TOTAL [3]?
Answer: 2.6 g

Question: What about the KIDNEY_L [4] of the same molecule?
Answer: 1.5 g

Question: And the KIDNEY_R [4]?
Answer: 1.5 g

Question: What about the KIDNEY_TOTAL [4] of the same molecule?
Answer: 3 g

Question: And the ALP [2]?
Answer: 901.8 IU/L

Question: What about the ALT [2] of the same molecule?
Answer: 35 IU/L

Question: And the AST [2]?
Answer: 66.8 IU/L

Question: And the BUN [2]?
Answer: 16 mg/dL

Question: And the CRE [2]?
Answer: 0.4 mg/dL

Question: What about the Ca [2] of the same molecule?
Answer: 10.4 mg/dL

Question: And the Cl [2]?
Answer: 102.4 meq/L

Question: What about the DBIL [2] of the same molecule?
Answer: 0.094 mg/dL

Question: What about the GLC [2] of the same molecule?
Answer: 211.6 mg/dL

Question: And the IP [2]?
Answer: 8.5 mg/dL

Question: What about the K [2] of the same molecule?
Answer: 4 meq/L

Question: What about the LDH [2] of the same molecule?
Answer: 222.2 IU/L

Question: And the Na [2]?
Answer: 141 meq/L

Question: What about the PL [2] of the same molecule?
Answer: 158.4 mg/dL

Question: And the RALB [2]?
Answer: 3.2 g/dL

Question: What about the TBIL [2] of the same molecule?
Answer: 0.1 mg/dL

Question: What about the TC [2] of the same molecule?
Answer: 71.8 mg/dL

Question: What about the TG [2] of the same molecule?
Answer: 153.4 mg/dL

Question: What about the TP [2] of the same molecule?
Answer: 5.4 g/dL

Question: What about the gamma-GTP [2] of the same molecule?
Answer: 0.6 IU/L

Question: And the ALP [3]?
Answer: 825.8 IU/L

Question: And the ALT [3]?
Answer: 36.8 IU/L

Question: And the AST [3]?
Answer: 77 IU/L

Question: And the BUN [3]?
Answer: 14.6 mg/dL

Question: And the CRE [3]?
Answer: 0.4 mg/dL

Question: And the Ca [3]?
Answer: 10.4 mg/dL

Question: And the Cl [3]?
Answer: 102.2 meq/L

Question: And the DBIL [3]?
Answer: 0.092 mg/dL

Question: What about the GLC [3] of the same molecule?
Answer: 187.4 mg/dL

Question: What about the IP [3] of the same molecule?
Answer: 8 mg/dL

Question: And the K [3]?
Answer: 4.2 meq/L

Question: And the LDH [3]?
Answer: 252 IU/L

Question: And the Na [3]?
Answer: 141.6 meq/L

Question: And the PL [3]?
Answer: 158.6 mg/dL

Question: What about the RALB [3] of the same molecule?
Answer: 3.3 g/dL

Question: And the TBIL [3]?
Answer: 0.1 mg/dL

Question: And the TC [3]?
Answer: 72.4 mg/dL

Question: What about the TG [3] of the same molecule?
Answer: 151.4 mg/dL

Question: And the TP [3]?
Answer: 5.5 g/dL

Question: And the gamma-GTP [3]?
Answer: 0.8 IU/L

Question: And the ALP [4]?
Answer: 641.6 IU/L

Question: What about the ALT [4] of the same molecule?
Answer: 35.8 IU/L

Question: And the AST [4]?
Answer: 81.4 IU/L

Question: And the BUN [4]?
Answer: 16.2 mg/dL

Question: What about the CRE [4] of the same molecule?
Answer: 0.5 mg/dL

Question: And the Ca [4]?
Answer: 10.2 mg/dL

Question: What about the Cl [4] of the same molecule?
Answer: 102.8 meq/L

Question: What about the DBIL [4] of the same molecule?
Answer: 0.1 mg/dL

Question: And the GLC [4]?
Answer: 229.2 mg/dL

Question: What about the IP [4] of the same molecule?
Answer: 7.3 mg/dL

Question: And the K [4]?
Answer: 3.8 meq/L

Question: And the LDH [4]?
Answer: 193 IU/L

Question: What about the Na [4] of the same molecule?
Answer: 142.2 meq/L

Question: What about the PL [4] of the same molecule?
Answer: 149.8 mg/dL

Question: And the RALB [4]?
Answer: 3.4 g/dL

Question: And the TBIL [4]?
Answer: 0.2 mg/dL

Question: And the TC [4]?
Answer: 69.4 mg/dL

Question: What about the TG [4] of the same molecule?
Answer: 148.8 mg/dL

Question: And the TP [4]?
Answer: 5.8 g/dL

Question: And the gamma-GTP [4]?
Answer: 0.6 IU/L

Question: What about the TERMINAL_BW [5] of the same molecule?
Answer: 232.1 g

Question: And the APTT [5]?
Answer: 24.9 s

Question: What about the Bas [5] of the same molecule?
Answer: 0%
